Earlier results on two compounds are cited in US8586590B2, “Compounds” (GlaxoSmithKline Intellectual Property Development Limited, priority 2009, dated 2013).

The subject of data set [1] is phospholipases.
For data set [2], the system named is neutrophil.
Data set [3] relates to neutrophils. As to conditions: treatment of neutrophils; Thelen et al. 1994.

As for `O=c1cc(N2CCOCC2)oc2c(-c3ccccc3)cccc12` [LY294002], in data set [1], the “inhibitory activity on phospholipases” value is “some inhibitory activity”. Besides, in data set [2], the neutrophil migration entry is “block” and the superoxide release entry is reported as “block”.
For the compound `COC[C@H]1OC(=O)c2coc3c2[C@@]1(C)C1=C(C3=O)[C@@H]2CCC(=O)[C@@]2(C)C[C@H]1OC(C)=O` [wortmannin], the “fMLP-induced respiratory burst response” value in data set [3] is “prevents the fMLP-induced respiratory burst response”. Besides, in data set [2], the neutrophil migration result is on record as “block” and the superoxide release result is reported as “block”.
